In patent US5006549A, “Novel 7-aroyl-4-hydroxy-3-methyl-benzofurans as dual inhibitors of cyclooxygenase and 5-lipoxygenase” (priority 1989, dated 1991):
Where two headings read alike, the source gives them in different places.

Experiments:
[1] = biological target: T1, Ram seminal vesicle microsomal cyclooxygenase (Ovis aries, UniProt P05979); assay: Ram Seminal Vesicle Microsomal Cyclooxygenase Assay (RSV CO); type: biochemical; settings: for IC50: RSV cyclooxygenase, mean values of at least two titrations; for activity in the CO assay: reference compounds
T1 construct: Ram seminal vesicular glands were trimed of excess fat; from tissue; host or cells: ram seminal vesicular glands, microsomes (105K×g pellet)
T1 sequence (P05979 25-600): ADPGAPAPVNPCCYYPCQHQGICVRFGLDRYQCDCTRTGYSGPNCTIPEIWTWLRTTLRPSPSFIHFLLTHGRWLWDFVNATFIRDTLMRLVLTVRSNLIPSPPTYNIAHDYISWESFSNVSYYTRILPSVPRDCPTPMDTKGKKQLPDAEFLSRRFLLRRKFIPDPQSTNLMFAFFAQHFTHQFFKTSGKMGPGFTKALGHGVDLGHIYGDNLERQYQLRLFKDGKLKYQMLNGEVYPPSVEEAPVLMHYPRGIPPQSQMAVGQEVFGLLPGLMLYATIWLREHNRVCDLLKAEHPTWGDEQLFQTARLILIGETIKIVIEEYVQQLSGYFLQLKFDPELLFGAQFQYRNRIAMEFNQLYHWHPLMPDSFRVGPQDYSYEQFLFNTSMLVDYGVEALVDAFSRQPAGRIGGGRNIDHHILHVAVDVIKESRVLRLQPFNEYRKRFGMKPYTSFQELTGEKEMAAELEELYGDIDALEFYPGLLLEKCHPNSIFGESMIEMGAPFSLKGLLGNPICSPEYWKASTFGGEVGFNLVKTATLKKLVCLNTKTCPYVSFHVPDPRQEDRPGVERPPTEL
Protocol: Compounds of formula I were also evaluated in accordance with the ram seminal vesicle microsomal cyclooxygenase (RSV CO) assay.
Ram Seminal Vesicle Microsomal Cyclooxygenase Assay (RSV CO)
Ram seminal vesicular glands were trimed of excess fat, 50 gm diced into ice cold 0.1M potassium phosphate (pH 7.6) buffer and homoginized using a Brinkman Polytron. The suspension was centrifuged 10 min. at 10K×g (4°) and the supernatant filtered through two cheesecloth layers. The filtrate was centrifuged 160 min. at 105K×g. The supernatant was discarded and the pellet surface rinsed with a small volume of buffer. The pellets were combined in a small volume, briefly homoginized with the Polytron and frozen in 0.5 mL aliquots at -80°. The protien concentration was ~50 mg/mL. […] The thawed enzyme was diluted 1:63 with 0.125M sodium EDTA (pH 8.0) containing 50 mg/ml BSA. A substrate cofactor premix was prepared with 66 mL 14C-arachidonic acid (~20K cpm/12.5 mL) in 500 mL 0.125 M sodium EDTA (pH 8.0) plus 10 mL 50 mM hydroquinone and 10 mL 200 mM glutathione. To each sample well in the 96 well plate agents were added disolved in 0.5 mL DMSO followed by 12.5 mL of the diluted enzyme. After a 4 minute preincubation at room temperature 12.5 mL of the substrate cofactor mix was added to start the reaction. The reaction was killed after 20 minutes at room temperature by adding 25 mL methanol containing 200 mg PGE2 and 400 mg AA per mL. The entire reaction mixture was spotted onto a preadsorbent silica gel GF thin layer plate and, after air drying 45 minutes developed 12 cm in ethyl acetate:glacial acetic acid (99:1). The developed lanes were scanned for the distribution of radiolabel using a Bioscan Imaging Detector and the integrated peaks compared to standards and controls yielding percent inhibition.

[2] = system: LTB4 production in PMN (LO); assay: PMN LTB4 Assay (inhibition of LTB4 production in rat PMN); type: cell-based, male Sprague-Dawley rats; settings: for IC50: leukotriene biosynthesis in rat PMN, mean values of at least two titrations
Protocol: Male Sprague-Dawley rats (~350 g) were injected intraperitoneally the day before use with 8 mL of 12% sodium caseinate. The next day the animals were killed by CO2 asphyxiation and the peritoneal cavity lavaged twice with 20 mL of Hanks balanced salts containing 15 mM HEPES (pH 7.4), 1.4 mM Ca^++ and 0.7 mM Mg^++ (Hepes-Hanks). The suspensions were filtered through plastic mesh and centrifuged at 260×g for 5 minutes. The cells were resuspended in 50 ml Hepes-Hanks and recentrifuged. The PMN pellets were combined and suspended at 1.25×10^7 cells/mL. The cell suspension was diluted 1:10, preincubated 5 minutes at 37° and distributed into 96 well microtiter plates with […]. The wells had previously received samples, controls, ect., in 25 mL of 0.001% fatty acid free BSA in Hepes-Hanks. The plates were incubated 2 min. at 37° and then the cells were stimulated to produce LTB4 by the addition of 25 mL of […]. After 4 minutes the plates were frozen in dry ice. The frozen plates were thawed to 4° and 25 mL aliquots removed to V-well plates. Antibody to LTB4 (50 mL) was added in and after 15 minutes at room temperature, 50 mL of ^3 H-LTB4 was added and the plates were stored overnight at 4° to allow equilibration. The next day the "free" 3HLTB4 was removed by adsorption to dextran coated charcoal ([…]/well of a 4% charcoal suspension with 0.25% Dextran T-70 in 10 mM potassium phosphate (pH 7.3) containing 1 mM EDTA and 0.25 mM thimerasol) durring a 10 minute ice temperature incubation. The charcoal was removed by a 10 minute centrifugation at 260×g. Aliquots of the supernatant were counted in a Packard 460, analyzed in a Masscomp computer (programs "filhariala and fhariasa") and the data reported as percent inhibition of LTB4 production.

[3] = system: LTB4 biosynthesis in intact rat PMN; settings: cited from earlier work
cyclooxygenase [4] = settings: cited from earlier work
cyclooxygenase [5] = settings: bovine seminal vesicle microsomal enzyme preparation; read-out: IC50 against cyclooxygenase; cited from earlier work
5-lipoxygenase = settings: cited from earlier work
[6] = system: animal models of inflammation; settings: several animal models; cited from earlier work

| Structure (SMILES) | IC50 [1] [nM] | IC50 [2] [nM] | further results |
| --- | --- | --- | --- |
| Cc1coc2ccc(C(C)(C)C)c(O)c12 [Compound 12b, 3-Methyl-4-hydroxy-5-tert-butylbenzofuran] | 54000 | 600 |  |
| Cc1coc2c(C(C)(C)C)ccc(O)c12 [Compound 10a, 3-Methyl-4-hydroxy-7-tert-butylbenzofuran] |  | 2100 | inhibition at 1000 µg/mL ([1]; read-out: % inhibition (CO)): 1% |
| Cc1coc2c(C(C)(C)C)cc(C(C)(C)C)c(O)c12 [Compound 10b, 3-Methyl-4-hydroxy-5,7-di-tert-butylbenzofuran] |  |  | inhibition at 10000 µg/mL ([1]; read-out: % inhibition (CO)): 0%; inhibition at 1000 µg/mL ([2]; Rattus norvegicus, at 1 mg/ml): 37% |
| Cc1coc2c(C(=O)c3ccccc3)ccc(O)c12 [Compound 6, 3-Methyl-4-hydroxy-7-benzoylbenzofuran] | 1300 | 3500 |  |
| CC(C)Cc1ccc(C(C)C(=O)O)cc1 (centres unmarked) [ibuprofen, reference compound] |  |  | activity in the CO assay [1]: displaying activity |
| COc1ccc2c(c1)c(CC(=O)O)c(C)n2C(=O)c1ccc(Cl)cc1 [indomethacin, reference compound] |  |  | activity in the CO assay [1]: displaying activity |
| CCCc1cc(Cl)c2oc(Cc3ccccc3)c(C)c2c1O [Compound B] |  |  | IC50 [3]: 240 nM; potency on cyclooxygenase relative to LTB4 biosynthesis inhibition (selectivity) (cyclooxygenase [4]; RSV CO versus intact rat PMN): a hundred times less potent; IC50 (cyclooxygenase [4]; RSV CO): 25000 nM |
| Cc1coc2c(C(=O)c3ccc(Cl)cc3)cc(C(C)(C)C)c(O)c12 [Compound 19, 3-Methyl-4-hydroxy-5-tert-butyl-7-p-chlorobenzoylbenzofuran] | 1200 | 4400 |  |
| CC(C)(C)c1cc(C(=O)c2cccs2)cc(C(C)(C)C)c1O [A, 2,6-di-tert-butyl-4-(2-thienoyl) phenol] |  |  | IC50 (cyclooxygenase [5]): 500 nM; potency at inhibiting guinea pig lung 5-lipoxygenase relative to cyclooxygenase (5-lipoxygenase; compared with bovine seminal vesicle cyclooxygenase): fortyfold less potent; IC50 (5-lipoxygenase; guinea pig lung, read-out: IC50 against guinea pig lung 5-lipoxygenase): 20000 nM; antiinflammatory activity in animal models of inflammation [6]: novel antiinflammatory agent in several animal models of inflammation |

Continued, in another order:

| IC50 [1] [nM] | IC50 [2] [nM] | Structure (SMILES) | further results |
| --- | --- | --- | --- |
| 1300 | 1700 | CCCc1cc(C(=O)c2cccs2)c2occ(C)c2c1O [Compound 5, 3-Methyl-4-hydroxy-5-propyl-7-(2-thienoyl)benzofuran] |  |
| 1300 | 1100 | Cc1coc2c(C(=O)c3ccccc3)cc(C(C)(C)C)c(O)c12 [Compound 16, 3-Methyl-4-hydroxy-5-tert-butyl-7-benzoylbenzofuran] |  |
| 1000 | 1500 | Cc1coc2c(C(=O)c3cccs3)cc(C(C)(C)C)c(O)c12 [Compound 14, 3-Methyl-4-hydroxy-5-tert-butyl-7-(2-thienoyl)-benzofuran] |  |
| 800 | 2700 | Cc1coc2c(C(=O)c3cccs3)ccc(O)c12 [Compound 3, 3-Methyl-4-hydroxy-7-(2-thienoyl)benzofuran] |  |
| 5600 | 6700 | C=CCc1cc(C(=O)c2cccs2)c2occ(C)c2c1O [Compound 4, 3-methyl-4-hydroxy-5-(2-propen-1-yl)-7-(2-thienoyl)benzofuran] |  |
